Columns and labels:
[1] = mouse, in vivo
[2] = system: MET-1^fvb2 mammary carcinoma cells; assay: In vitro viability assay (MTT); format: cell-based, mouse; details: Met-1 cell line, 72 hours, read-out: IC50 (cytotoxicity)
Protocol: MET-1^fvb2 mammary carcinoma cells were obtained from the Alexander Borowsky Laboratory (UC Davis). MET-1 cells were plated at 2000 cells in 50 μl media per well in 96-well tissue culture plates in high glucose Dulbecco's Modified Eagle's Medium (DMEM, Invitrogen, Carlsbad, Calif.) supplemented with 1% PenStrep and 10% FBS. Cells were given six hours to attach to the plate surface. Treatments were added to each well in 100 μl media and experiments were performed in triplicate. Doxil®, a commercial product of ALZA corporation and manufactured by Centocor Ortho Biotech, was purchased from Cardinal Health Care (Dublin, Ohio) and the in vitro viability was compared with the liposomal copper-doxorubicin.
Plates were incubated for 72 hours at 37° C. in 5% CO2. 3-(4,5-dimethylthiazol-2-yl)-2,5-diphenyltetrazolium bromide (MTT, Invitrogen, Carlsbad, Calif.) reagent was added to media at a concentration of 0.5 mg/ml, and cells were incubated 2 hours at 37° C. in 5% CO2. […] Absorbance was measured using Tecan Infinite® M1000 Microplate Reader (San Jose, Calif.) at wavelength 570 nm (reference of 670 nm). Best-fit curves and IC50 values were calculated for concentration-response curves using GraphPad Prism software (GraphPad Inc., La Jolla, Calif.). Average IC50 values calculated from a minimum of three replicate experiments for each preparation.

[3] = Ex vivo imaging of doxorubicin accumulation in mouse heart; details: 40 min post administration
Protocol: FIG. 15. Ex vivo imaging of doxorubicin accumulation in mouse heart after liposomes were injected into the tail vein and allowed to circulate. Heart was removed after euthanasia to assess fluorescence. a) Doxorubicin fluorescence in hearts of mice injected with liposomal doxorubicin in lyso-temperature sensitive liposomes when Dox was loaded with ammonium sulfate method (ASDox-LTSLs) or loaded in liposomes containing 100 mM copper/270 mM TEA (CuDox-LTSLs), and loaded in temperature sensitive liposomes with 25% cholesterol containing 100 mM copper/270 mM TEA (CuDox-TSLs+25% chol) compared to those injected with free Dox. Animals were euthanized 40 min post administration of free or liposomal doxorubicin. Animals were perfused with saline and hearts were dissected prior to Maestro imaging. Statistical analyses were performed using one-way ANOVA followed by a Tukey Post Hoc test. *p<0.05, **p<0.01. Inset images of heart acquired by Maestro imaging system (white indicates higher doxorubicin fluorescence intensity).

[4] = system: NDL cells; assay: Intracellular trafficking and subcellular localization of doxorubicin; format: cell-based; details: post incubation at 37° C.

- skin fluorescence trend [1]: decreasing with time
- increase in cardiac accumulation of doxorubicin compared to liposomal copper-doxorubicin in temperature-sensitive liposomes [3]: 4 fold
SMILES: COc1cccc2c1C(=O)c1c(O)c3c(c(O)c1C2=O)C[C@@](O)(C(=O)CO)C[C@@H]3O[C@H]1C[C@H](N)[C@H](O)[C@H](C)O1.Cl [free doxorubicin, Doxorubicin hydrochloride]
- IC50 [2]: 20 ± 10 nM
- time at which the nucleus showed doxorubicin fluorescence [4]: 15 min

— patent US9844656B2, “Localization of agents at a target site with a composition and an energy source” (The Regents of the University of California, priority 2010, dated 2017)
